According to paper PMC10667104, “Biosynthesis of natural and halogenated plant monoterpene indole alkaloids in yeast” (Nature Chemical Biology, 2023):

Molecular target: T1, ADRA2A (Homo sapiens, UniProt P08913)
T1 sequence (P08913 1-465): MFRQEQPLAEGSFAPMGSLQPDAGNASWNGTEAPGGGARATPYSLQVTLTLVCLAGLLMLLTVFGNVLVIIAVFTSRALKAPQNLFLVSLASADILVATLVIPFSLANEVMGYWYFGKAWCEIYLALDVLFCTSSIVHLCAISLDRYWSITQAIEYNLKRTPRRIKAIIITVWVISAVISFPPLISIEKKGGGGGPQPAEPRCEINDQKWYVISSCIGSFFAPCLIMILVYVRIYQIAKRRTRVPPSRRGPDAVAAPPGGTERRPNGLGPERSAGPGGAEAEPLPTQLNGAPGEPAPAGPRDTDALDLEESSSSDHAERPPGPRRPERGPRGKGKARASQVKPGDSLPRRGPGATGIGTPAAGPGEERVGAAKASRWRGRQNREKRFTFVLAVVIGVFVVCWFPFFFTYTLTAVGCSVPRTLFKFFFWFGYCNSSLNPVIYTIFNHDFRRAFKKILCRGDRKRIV
Assay: cell-based

SMILES: COC(=O)C1=CO[C@@H](C)[C@@H]2Cn3ccc4c5ccccc5nc-4c3C[C@H]12 [1a, alstonine]
- IC50: 59 µM
